Laboratory results from patent publication US7087394B2, “Methods and compositions for treating and diagnosing diabetes and related diseases involving beta-TRP” (Metabolex, Inc., priority 2003, dated 2006).
“Also recorded” adds a separate entry of the source.

How the values were obtained:
βTRP = target: T1, βTRP (Homo sapiens, UniProt Q9NZQ8); experiment: Membrane potential (MP) assay in βTRP-CHO cells, FLEXStation with Membrane Potential Dye; format: cell-based; conditions: for depolarization / MP response in βTRP-CHO cells: βTRP-CHO cell line (A2-18); for EC50: βTRP-CHO cells, membrane potential, read-out: estimated EC50 of depolarization
T1 construct: expressed in transfected cells; control line A1-5
T1 sequence (Q9NZQ8 1-1165): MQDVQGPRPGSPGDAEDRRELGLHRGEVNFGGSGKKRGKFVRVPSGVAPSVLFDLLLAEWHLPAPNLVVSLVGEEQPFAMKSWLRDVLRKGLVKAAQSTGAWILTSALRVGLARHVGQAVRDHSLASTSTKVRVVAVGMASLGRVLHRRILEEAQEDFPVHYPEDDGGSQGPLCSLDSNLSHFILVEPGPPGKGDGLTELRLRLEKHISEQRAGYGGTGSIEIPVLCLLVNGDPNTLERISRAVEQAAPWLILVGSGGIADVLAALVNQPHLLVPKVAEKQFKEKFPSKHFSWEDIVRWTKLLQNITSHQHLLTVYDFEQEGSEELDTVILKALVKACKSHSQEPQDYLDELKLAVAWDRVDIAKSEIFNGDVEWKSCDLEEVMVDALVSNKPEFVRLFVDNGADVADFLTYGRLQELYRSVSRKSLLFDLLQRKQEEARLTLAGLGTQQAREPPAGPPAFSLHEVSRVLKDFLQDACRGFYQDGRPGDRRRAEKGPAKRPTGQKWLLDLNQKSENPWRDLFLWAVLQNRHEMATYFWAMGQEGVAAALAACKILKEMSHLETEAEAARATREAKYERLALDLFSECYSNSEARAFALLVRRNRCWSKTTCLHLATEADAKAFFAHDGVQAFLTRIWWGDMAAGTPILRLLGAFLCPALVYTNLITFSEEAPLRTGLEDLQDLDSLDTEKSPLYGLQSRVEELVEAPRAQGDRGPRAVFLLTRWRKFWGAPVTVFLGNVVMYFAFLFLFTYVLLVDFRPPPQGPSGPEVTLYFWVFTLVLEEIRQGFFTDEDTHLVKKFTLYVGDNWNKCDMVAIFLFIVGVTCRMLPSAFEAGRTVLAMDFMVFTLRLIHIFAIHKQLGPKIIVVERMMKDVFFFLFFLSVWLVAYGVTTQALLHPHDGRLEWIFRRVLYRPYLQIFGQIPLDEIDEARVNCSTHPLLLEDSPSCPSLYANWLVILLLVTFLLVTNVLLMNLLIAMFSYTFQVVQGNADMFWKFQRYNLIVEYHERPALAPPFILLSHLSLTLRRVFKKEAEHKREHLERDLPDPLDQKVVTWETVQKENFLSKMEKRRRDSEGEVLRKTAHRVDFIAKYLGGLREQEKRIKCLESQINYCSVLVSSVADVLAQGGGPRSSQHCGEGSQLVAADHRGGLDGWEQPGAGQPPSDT
Protocol: (§1) Control and βTRP-CHO cells were plated in 96-well plates 2-d before the assay. [Ca^2+]i and membrane potential (MP) responses to ATP (30 μM added at 20 sec) were measured with FLEXStation® and correspondent dyes from Molecular Devices (Sunnyvale, Calif.).
(§2) The following protocol is optimized for the measurement of membrane potential (MP) in 96-well format using Molecular Devices' Membrane Potential Dye (Cat #R-8034) on the FLEXStation (Molecular Devices). It is expected to be applicable or adaptable to the 384-well format assay with the FLIPR^384 system.
A CHO-K1 based stable cell line expressing βTRP (designated “Line A2-18” herein) is used for βTRP high throughput screening according to the follow protocol: • 1. Seed A2–18 βTrp-CHO cell and the control line (A1-5) to 96-well plates. • 2. Grow the cells for 24–48 h in DMEM medium to 85–95% confluency. • 3. Prepare following reagents immediately before the assay: • i. Assay buffer: dilute Component B of the FLIPR® assay kit and adjust pH to 7.4 with 1 N NaOH. No probenecid was needed. • ii. MP dye: suspend a vial of Component A of the FLIPR® assay kit with 10 ml of the assay buffer. • iii. Compound solutions: dilute DMSO stocks of the testing compounds to a 5× solution with the assay buffer. Raise Ca^2+ concentration in the compound solutions to 12.5 mM with 1 M CaCl2. • 4. Carefully remove the culture medium from all wells. • 5. Add 50 μl assay buffer and 50 μl MP dye. • 6. Incubate the plates at 37° C. for 30–60 minutes. • 7. Set the FLEXStation to MP assay mode and to 37° C. • 8. Transfer the cell plate and compound plate to FLEXStation. • 9. Record baseline for 18 sec (Ex 530, Em560). • 10. Add the 5× compound solutions to the cells and read another 100 sec. • 11. Save and analyze data. Reagent List • 1. Assay buffer: Hank's Balanced Salt Solution (HBSS) with 20 mM Hepes, pH 7.4 • 2. MP dye: Molecular Devices Corporation, Cat#8034 (for FLIPR) • 3. Positive control: ATP 10–100 μM (a purinergic receptor agonist) Calcimycin (A23187) 5–10 μM (a calcium ionophore) • 4. Antagonist control: • i. 2-APB 75 μM (from Tocris, TRP channel and IP3 receptor blocker); • ii. U73122 10 μM (from Sigma Chemicals, PLC inhibitor). Other Experimental Conditions • 1. The Cells: • iii. Maintenance: DMEM with 10% FCS and 200 μg/ml G418; Passaged 1–2 time/week with trypsin-EDTA. • iv. Confluency: 85–95% by the time of assay. • v. Plating: Regular or pre-coated plates; 24–48 h before assay. • vi. Passage: up to the 10th passage.

control (A1-5) CHO cells = experiment: Membrane potential (MP) assay in control CHO cells (A1-5); format: cell-based, Chinese hamster; conditions: control CHO line (A1-5)
Protocol: as §1, §2
A CHO-K1 based stable cell line expressing βTRP (designated “Line A2-18” herein) is used for βTRP high throughput screening according to the follow protocol: • 1. Seed A2–18 βTrp-CHO cell and the control line (A1-5) to 96-well plates. • 2. Grow the cells for 24–48 h in DMEM medium to 85–95% confluency. • 3. Prepare following reagents immediately before the assay: • i. Assay buffer: dilute Component B of the FLIPR® assay kit and adjust pH to 7.4 with 1 N NaOH. No probenecid was needed. • ii. MP dye: suspend a vial of Component A of the FLIPR® assay kit with 10 ml of the assay buffer. • iii. Compound solutions: dilute DMSO stocks of the testing compounds to a 5× solution with the assay buffer. Raise Ca^2+ concentration in the compound solutions to 12.5 mM with 1 M CaCl2. • 4. Carefully remove the culture medium from all wells. • 5. Add 50 μl assay buffer and 50 μl MP dye. • 6. Incubate the plates at 37° C. for 30–60 minutes. • 7. Set the FLEXStation to MP assay mode and to 37° C. • 8. Transfer the cell plate and compound plate to FLEXStation. • 9. Record baseline for 18 sec (Ex 530, Em560). • 10. Add the 5× compound solutions to the cells and read another 100 sec. • 11. Save and analyze data. Reagent List • 1. Assay buffer: Hank's Balanced Salt Solution (HBSS) with 20 mM Hepes, pH 7.4 • 2. MP dye: Molecular Devices Corporation, Cat#8034 (for FLIPR) • 3. Positive control: ATP 10–100 μM (a purinergic receptor agonist) Calcimycin (A23187) 5–10 μM (a calcium ionophore) • 4. Antagonist control: • i. […]

Structure (SMILES)	depolarization / MP response in control cells (control (A1-5) CHO cells)	depolarization / MP response in βTRP-CHO cells (βTRP)	EC50 (βTRP) [µM]	further results
C=CC[C@H](C)[C@H](C)C[C@@H](O)[C@H](O)[C@@H]1CC[C@@]2(C)O[C@@]3(C)C[C@@]4(C)O[C@H]5/C=C\C[C@H]6O[C@H]7C[C@H]8O[C@H]9C[C@@]%10(C)O[C@@](C)([C@@H]%11CC[C@H]%12O[C@@]%13(C)C[C@H]%14O[C@@]%15(C)C[C@H]%16O[C@@]%17(C)C[C@@H](O)[C@H]([C@@H]%18O[C@H]%19[C@H](O)[C@@H](O)[C@H](C[C@H](O)C[C@@H](O)[C@@H]%20O[C@H]%21[C@H](O)[C@@H](O)[C@H]([C@@H]%22O[C@@H]%23[C@H](O)[C@H]%24O[C@H]%25C[C@H]%26O[C@@H](C[C@H](O)[C@@H](O)[C@H]%27O[C@H]%28[C@H](O)[C@H]%29O[C@H]%30C[C@H]%31O[C@H]%32[C@@H](O)[C@@H](O)[C@H]([C@H](C)[C@H](O)[C@H](C)CC[C@H](OS(=O)(=O)O)[C@H](O)[C@H](C)C[C@@H](O)C(=C)/C(C)=C/CO)O[C@@H]%32[C@H](O)C[C@]%31(C)O[C@@H]%30C[C@]%29(C)O[C@@H]%28C[C@H]%27O)[C@H](OS(=O)(=O)O)[C@H](O)[C@@H]%26O[C@@H]%25C[C@@H]%24O[C@H]%23[C@H](O)[C@H]%22O)O[C@H]%21C[C@H]%20O)O[C@H]%19C[C@H]%18O)O[C@@H]%17[C@H](O)[C@]%16(C)O[C@@H]%15CC[C@]%14(C)O[C@@H]%13C[C@@H]%12O%11)[C@H](O)C[C@@H]%10O[C@]9(C)CC[C@]8(C)O[C@]7(C)C[C@@H]6O[C@@H]5C[C@@H]4O[C@@H]3C[C@@H]2O1 [MTX, maitotoxin]	–	–	–	MP response at low Ca2+ (βTRP; 1.26 mM Ca2+ in assay buffer): lack of action; [Ca2+]i or MP increase at raised Ca2+ (βTRP; Ca2+ raised to 2.5–5 mM): significantly enhanced
CNc1ccc2oc(C[C@H]3O[C@@]4(CC[C@H]3C)O[C@H]([C@H](C)C(=O)c3ccc[nH]3)[C@H](C)C[C@H]4C)nc2c1C(=O)O [calcimycin, Calcimycin]	No effect	dose-dependently induced depolarization	~0.8	depolarization / MP response in βTRP-CHO cells (βTRP; listed as A23187): induced a βTRP cell specific depolarization
CCCCCCC[N+](CC)(CC)CCCCc1ccc(Cl)cc1 [Clofilium]	triggered depolarization	triggered depolarization	–	–
Nc1ncnc2c1ncn2[C@@H]1O[C@H](COP(=O)(O)OP(=O)(O)OP(=O)(O)O)[C@@H](O)[C@H]1O [ATP]	No effect	present only in βTRP cells; also recorded: dose-dependently induced depolarization	~11	–
NCCOB(c1ccccc1)c1ccccc1 [2-APB]	–	–	–	suppression of MP response to ATP (βTRP; inhibitor added at the same time as ATP): over 50%; suppression of MP response to calcimycin (βTRP; inhibitor added at the same time as calcimycin): over 50%
COc1ccc2c(c1)CC[C@@H]1[C@@H]2CC[C@]2(C)[C@@H](NCCCCCCN3C(=O)C=CC3=O)CC[C@@H]12 [U73122]	–	–	–	effect on ATP-induced MP response after pre-incubation (βTRP; 30 minute pre-incubation before ATP): inhibited
